Test results reported in article PMC3578785, “Improved BM212 MmpL3 Inhibitor Analogue Shows Efficacy in Acute Murine Model of Tuberculosis Infection” (PLoS ONE, 2013).
≈ marks a conversion by molar mass, not a printed value. Read-outs that look alike come from different tables or passages of the source.

Legend:
in vitro [1] = settings: plasma, pH 7.4
in vitro [2] = settings: African green monkey
in vitro [3] = assay type: in vitro ADME, mouse; settings: pH 7.4; for Cli mouse: 0.5 µM; for half-life: mouse microsomes, read-out: t1/2 in mouse microsomes
Procedure: (§1) Protocol S6. Microsomal fraction stability experimental procedure.
(§2) Pooled mouse and human liver microsomes are purchased from Xenotech. Microsomes (final protein concentration 0.5 mg/mL, MgCl2 (final concentration = 5 mM) and test compound (final substrate concentration = 0.5 µM; final DMSO concentration = 0.5%) in 0.1M phosphate buffer pH 7.4 were pre-incubated at 37°C prior to the addition of NADPH (final concentration = 1 mM) to initiate the reaction. The final incubation volume was 600 µL. A control incubation was included for each compound tested where 0.1 M phosphate buffer pH 7.4 is added instead of NADPH (minus NADPH). One control compound was included with each species. All incubations were performed singularly for each test compound. Each compound was incubated for 30 minutes and samples (90 µL) of incubate were taken at 0, 5, 15, 20 and 30 min. The control (minus NADPH) was sampled at 30 min only. The reactions were stopped by the addition of sample to 200 µL Acetonitrile:Methanol 3:1 containing internal standard. The terminated samples were centrifuged at 2.500 rpm for 20 min at 4°C to precipitate the protein.
(§3) Quantitative Analysis: following protein precipitation, the samples were analyzed using specific […]
(§4) Data Analysis: from a plot of ln peak area ratio (compound peak area/internal standard peak area) against time, the gradient of the line was determined. Subsequently, half-life and intrinsic clearance were calculated using the equations below:
(§5) Elimination rate constant (k) = (- gradient)
(§6) Half life (t1/2) (min) = […]
(§7) Intrinsic Clearance (CLint) (mL/min/g protein) = […] where V=Incubation volume mL/g microsomal protein.

in vitro [4] = assay type: in vitro ADME, human; settings: pH 7.4; for Cli human: 0.5 µM; for half-life: human microsomes, read-out: t1/2 in human microsomes
Procedure: as §1, §2, §3, §4, §5, §6, §7

M. tuberculosis H37Rv = assay: microbe, parasite or virus in culture; assay type: cell-based; settings: Mycobacterium tuberculosis, aerobic conditions
[5] = target: human serum albumin (HSA) (Homo sapiens, UniProt P02768); assay type: in vitro ADME; settings: human, pH 7.4
Procedure: Standard physical chemical property determination methods were used. Please see the Supporting Information for details.
Protocol S4. Determination of compounds binding to human serum albumin (HSA).
The determination of compounds binding to human serum albumin (HSA) was carried out by retention time measurements using immobilized HSA HPLC columns obtained from Chiral Technologies Ltd, France. The column dimensions were 50x3 mm. The mobile phase was 50 mM ammonium acetate buffer pH 7.4 and HPLC grade 2-propanol. HPLC Method: flow rate 1.8 ml/min applying 2.5 min 2-propanol gradient up to 30%. From 2.5 min to 4.5 min the 2-propanol concentration in the mobile phase was kept at 30%. From 4.5 min to 4.6 min, the 2-propanol concentration was decreased to 0% and kept like that until the end of the gradient run which was 6 min. A calibration set of compounds was first analyzed for which plasma protein binding data were available: Warfarin, Nizatidine, Bromazepam, Carbamazepine, Budesonide, Nicardipine, Indomethacine, Piroxicam, Naproxen. The calculation of the HSA binding data expressed as %HSA was carried out as described previously.

HepG2 cells = settings: human, 48 h

Sequence of human serum albumin (HSA) (P02768 25-609): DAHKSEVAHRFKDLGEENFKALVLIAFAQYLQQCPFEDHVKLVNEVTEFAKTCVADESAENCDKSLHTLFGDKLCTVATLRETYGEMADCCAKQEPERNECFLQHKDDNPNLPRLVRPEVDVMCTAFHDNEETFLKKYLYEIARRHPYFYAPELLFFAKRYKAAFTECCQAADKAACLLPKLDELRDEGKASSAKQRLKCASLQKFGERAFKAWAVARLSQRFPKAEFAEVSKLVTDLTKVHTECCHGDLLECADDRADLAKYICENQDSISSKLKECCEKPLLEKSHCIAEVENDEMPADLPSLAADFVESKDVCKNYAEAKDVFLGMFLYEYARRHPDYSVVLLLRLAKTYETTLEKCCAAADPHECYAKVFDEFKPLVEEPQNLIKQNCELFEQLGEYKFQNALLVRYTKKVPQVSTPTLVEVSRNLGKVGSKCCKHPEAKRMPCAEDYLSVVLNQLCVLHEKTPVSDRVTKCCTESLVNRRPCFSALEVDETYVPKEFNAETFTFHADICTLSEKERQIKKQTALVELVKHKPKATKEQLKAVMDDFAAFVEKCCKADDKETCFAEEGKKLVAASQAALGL

Structure (SMILES)	fraction unbound at 1 µM (in vitro [1])	CC50 at 72 h (in vitro [2]) [µM]	Cli mouse (in vitro [3]) [mL/min/g]	half-life (in vitro [3]) [min]	Cli human (in vitro [4]) [mL/min/g]	half-life (in vitro [4]) [min]	chromatographic logD (physchem; pH 2)	chromatographic logD (physchem; pH 7.4)	chromatographic logD (physchem; pH 10.5)	MIC (M. tuberculosis H37Rv) [µM]	HSA (%) binding [5] [%]	Tox50, cytotoxicity in HepG2 cells (HepG2 cells) [µM]	melting point [°C]
CCc1ccc(-n2c(-c3ccc(OC)cc3)cc(CN3CCOCC3)c2C)cc1 [Compound 23, 2-Methyl-3-[(morpholin-4-yl)-methyl]-5-[4-(methoxy)phenyl]-1-[4-(ethyl)phenyl]-1H-pyrrole]	0.002	16	7.8 ± 0.5	< 5	<0.5	> 30	1.24	4.05	4.52	0.3 (≈ 0.117 µg/mL)	96.79	14.7	72
COc1ccc(-c2cc(CN3CCSCC3)c(C)n2-c2ccc(F)cc2)cc1 [Compound 3]	0.004	> 302	18.76	< 5			1.07	3.97	4.62	0.16 to 0.2 (≈ 0.0634 to 0.0793 µg/mL)	96.82		
CCc1ccc(-n2c(-c3ccc(Cl)cc3)cc(CN3CCOCC3)c2C)cc1 [Compound 15, 2-Methyl-3-[(morpholin-4-yl)-methyl]-5-[4-(chloro)phenyl]-1-[4-(ethyl)phenyl]-1H-pyrrole]	< 0.001	170	4.0 ± 0.1	18.5	0.9 ± 0	> 30	1.54	5.01	5.36	0.6 (≈ 0.237 µg/mL)	98.03	17.8	102
Cc1ccc(-n2c(-c3ccc(Cl)cc3)cc(CN3CCOCC3)c2C)cc1 [Compound 14, 2-Methyl-3-[(morpholin-4-yl)-methyl]-5-[4-(chloro)phenyl]-1-[4-(methyl)phenyl]-1H-pyrrole]	< 0.001	9.31	7.41	9.69	0.57	> 30	1.28	4.53	4.94	1.3 (≈ 0.495 µg/mL)	97.62	26.0	111
CCCc1ccc(-n2c(-c3ccc(Cl)cc3)cc(CN3CCOCC3)c2C)cc1 [Compound 16, 2-Methyl-3-[(morpholin-4-yl)-methyl]-5-[4-(chloro)phenyl]-1-[4-(propyl)phenyl]-1H-pyrrole]	< 0.001	60.1		> 30	<0.5	> 30	1.72	5.61	5.86	0.6 (≈ 0.245 µg/mL)	98.24	15.4	94
COc1ccc(-c2cc(CN3CCOCC3)c(C)n2-c2ccc(C)cc2)cc1 [Compound 22, 2-Methyl-3-[(morpholin-4-yl)-methyl]-5-[4-(methoxy)phenyl]-1-[4-(methyl)phenyl]-1H-pyrrole]	0.008	50.1	12.62	< 5	1.14	> 30	1.02	3.57	4.11	0.6 (≈ 0.226 µg/mL)	95.64	11.3	115
CSc1ccc(-c2cc(CN3CCSCC3)c(C)n2-c2ccc(F)cc2)cc1 [Compound 4]	0.007	15.2	7.3 ± 0.1	10			1.33	4.52	5.03	0.16 to 0.2 (≈ 0.066 to 0.0825 µg/mL)	98.04		
COc1ccc(-c2cc(CN3CCOCC3)c(C)n2-c2ccc(F)cc2)cc1 [Compound 6, 2-Methyl-3-[(morpholin-4-yl)-methyl]-5-[4-(methoxy)phenyl]-1-[4-(fluoro)phenyl]-1H-pyrrole]	0.017	58.7	4.7 ± 0.1	15.9	0.5 ± 0	> 30	0.93	3.32	3.73	0.6 (≈ 0.228 µg/mL)	95.58		169
Cc1ccc(-c2cc(CN3CCSCC3)c(C)n2-c2ccc(F)cc2)cc1 [Compound 2]	< 0.001	179	7.2 ± 0.2	8.2			1.31	4.54	5.08	0.16 to 0.2 (≈ 0.0609 to 0.0761 µg/mL)	97.91	24.01	
Cc1c(CN2CCN(C)CC2)cc(-c2ccc(Cl)cc2)n1-c1ccc(Cl)cc1 [Compound 1]	0.002		0.7 ± 0.1	> 30			0.7	4.51	5.01	5 (≈ 2.07 µg/mL)	98.07	7.8	
